Experimental data published in patent US20240122909A1, “TREATMENTS OF HEREDITARY ANGIOEDEMA” (KALVISTA PHARMACEUTICALS LIMITED, priority 2021, published 2024).

What was measured:
[1] = Phase 1 single ascending dose study, plasma pharmacokinetics; format: in vivo, human; details: oral capsule 5 mg to 600 mg, fasted healthy males
Procedure: (§1) This study was a randomized, double-blind, placebo-controlled single ascending dose (SAD) and crossover studies for food effect and capsule/tablet formulations.
Samples for pharmacokinetic (PK) and PD assessment were taken at repeated intervals over 48 hours.
Plasma samples used for PK assessment were analysed using a validated liquid chromatography tandem mass spectrometry (LC MS/MS) method.

[2] = system: HK; assay: Phase 1 study, ex vivo DXS-stimulated cleavage of HK (Wes capillary immunoassay); format: in vivo, human; details: 600 mg capsules, up to 12 hrs post-dose
Procedure: DXS-stimulated cleavage of HK, in undiluted plasma was quantified by capillary-based immunoassay on the Wes System (ProteinSimple) using monoclonal anti-HK antibody and chemiluminescence-based detection. Plasma kallikrein mediated HK cleavage in undiluted citrated human plasma was induced by contact system activation with DXS (6.25 μg/ml) at 4° C. in selected samples from the SAD phase.

[3] = system: plasma prekallikrein; assay: Phase 1 study, ex vivo DXS-stimulated cleavage of plasma prekallikrein (Wes); format: in vivo, human; details: 600 mg capsules, up to 12 hrs post-dose
From the text: (§2) DXS-stimulated cleavage of plasma prekallikrein and Factor XII (FXII) were quantified by capillary-based immunoassay on the Wes System (ProteinSimple) analogously.

[4] = system: Factor XII (FXII); assay: Phase 1 study, ex vivo DXS-stimulated cleavage of Factor XII (Wes); format: in vivo, human; details: 600 mg capsules, up to 12 hrs post-dose
From the text: as §2

[5] = Phase 1 single ascending dose study, safety and tolerability; format: in vivo, human; details: phase I trial, healthy males
From the text: as §1

[6] = molecular target: PKa (Homo sapiens, UniProt P03952); assay: Protection of HK from PKa-mediated cleavage in DXS-stimulated HAE and control plasma; format: biochemical; details: HAE and healthy control plasma stimulated with dextran sulfate, WES
Sequence of PKa (P03952 391-638 limits assumed): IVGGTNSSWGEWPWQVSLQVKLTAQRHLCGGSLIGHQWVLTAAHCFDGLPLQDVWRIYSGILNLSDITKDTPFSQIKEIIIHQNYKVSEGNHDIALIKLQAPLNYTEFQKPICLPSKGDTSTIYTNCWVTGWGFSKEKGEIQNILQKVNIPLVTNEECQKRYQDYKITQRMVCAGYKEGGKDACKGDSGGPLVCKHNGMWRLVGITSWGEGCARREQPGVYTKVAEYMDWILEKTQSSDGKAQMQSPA
Sequence of PKa (P03952 20-390 partner limits assumed): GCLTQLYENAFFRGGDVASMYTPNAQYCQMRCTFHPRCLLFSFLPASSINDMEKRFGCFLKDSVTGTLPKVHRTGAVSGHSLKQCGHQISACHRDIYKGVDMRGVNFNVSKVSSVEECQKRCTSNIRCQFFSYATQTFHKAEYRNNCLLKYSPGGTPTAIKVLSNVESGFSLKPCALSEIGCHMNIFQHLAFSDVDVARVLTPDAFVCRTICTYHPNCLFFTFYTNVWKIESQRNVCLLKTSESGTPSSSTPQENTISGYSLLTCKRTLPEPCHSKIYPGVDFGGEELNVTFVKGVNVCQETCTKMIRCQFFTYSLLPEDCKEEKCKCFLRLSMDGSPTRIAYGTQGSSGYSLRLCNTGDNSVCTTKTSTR
Procedure: High molecular weight kininogen (HK) cleavage in undiluted citrated human plasma was induced by contact system activation with dextran sulfate (DXS, Sigma #31395-10G; 6.25 μg/ml) on wet ice. […] HAE plasma was obtained from HAE subjects (n=6) and C1-inhibitor deficiency was confirmed by western blotting. Protection of HK from PKa mediated cleavage in DXS-stimulated whole undiluted plasma was then determined by two methods; traditional western blotting and a semi-automated capillary-based immunoassay.
Western blotting: SDS-PAGE gel electrophoresis was done using 7.5% Criterion TGX Precast gels (Bio-rad). Transfer was made onto Immobilon-FL PVDF membrane. Image analysis was performed using the LICOR imaging system. Mouse monoclonal anti-human HK antibody (MAB15692, R&D systems) was used for traditional immunoblotting.
Capillary-Based Immunoassay on the WES System (ProteinSimple):
Preparation of samples: Combine one part 5× fluorescent master mix with four parts of the 1:200 plasma sample. Vortex to mix. Heat the samples+fluorescent master mix and the biotinylated ladder at 95° C. for 5 minutes, vortex, and load onto the WES plate. […] The peak area is defined as the area calculated for the spectral peak profile for HK. To measure the plasma kallikrein inhibition by the compound, the percent full-length HK detected was calculated.

[7] = Phase 2 study, safety (drug-related TEAEs); format: in vivo, human
From the text: Safety Variables: • AEs, including serious adverse events (SAEs). • Laboratory test results (clinical chemistry, hematology, coagulation, and urinalysis). • Vital signs (SBP, DBP, PR, RR, body temperature). • Physical examination findings. • ECG results. • Pregnancy test (female subjects of child-bearing potential).
AEs were coded using the Medical Dictionary for Regulatory Activities (MedDRA) dictionary (v21.0 or higher) and classified by preferred term and system organ class (SOC). Listings of treatment-emergent adverse events (TEAEs), serious TEAEs, and TEAEs causing premature discontinuation will be provided by sequence group, and further classified by TEAE severity and relationship to study drug.

[8] = molecular target: plasma kallikrein (Homo sapiens, UniProt P03952); assay: Phase 1 study, ex vivo PKa catalytic activity in DXS-stimulated undiluted plasma; set-up: samples from a Phase 1 Single Ascending Dose Study in healthy adult males; from tissue; host or cells: undiluted plasma of healthy adult male volunteers after oral dosing; details: 600 mg tablet
Sequence of plasma kallikrein (P03952 391-638 limits assumed): as the sequence (P03952 391-638 limits assumed) above
Sequence of plasma kallikrein (P03952 20-390 partner limits assumed): as the sequence (P03952 20-390 partner limits assumed) above
Procedure: PD measurements were determined in dextran sulfate (DXS) stimulated undiluted plasma using a fluorogenic enzyme assay and capillary based HK cleavage immunoassay.
The time until appearance of detectable amidolytic enzyme activity in DXS-stimulated plasma (lag time) was calculated from the catalytic activity assay. The detection sensitivity of the rate of catalytic activity in plasma based on using a Spark (Tecan) fluorimeter is a fluorescence increase to reach 1ΔF unit/sec.

COCc1nn(Cc2ccc(Cn3ccccc3=O)cc2)cc1C(=O)NCc1nccc(OC)c1F [compound of Formula A, N-[(3-fluoro-4-methoxypyridin-2-yl)methyl]-3-(methoxymethyl)-1-({4-[(2-oxopyridin-1-yl)methyl]phenyl}methyl)pyrazole-4-carboxamide]
plasma exposure [1]: rapid and dose-dependent plasma exposure | effect on HK cleavage [2]: reduces HK cleavage | effect on PPK cleavage [3]: reduces PPK cleavage | effect on generation of FXIIa [4]: reduces the generation of FXIIa | tolerability [5]: no tolerability signals | protection against HK cleavage [6]: dose dependent protection against HK cleavage | on-treatment drug-related TEAE, number of events ([7]; Part 1, open-label phase): 8 | patients with on-treatment drug-related TEAE ([7]; Part 1, open-label phase): 5 patients | on-treatment drug-related TEAE, number of events ([7]; Part 2, crossover phase): 3 | patients with on-treatment drug-related TEAE ([7]; Part 2, crossover phase): 5.2% | lag time until appearance of catalytic activity during contact system activation [8]: increases the time until appearance of catalytic activity | food effect on pharmacodynamic profile ([8]; fed vs fasted): no significant food-effect
